# Measurements from publication PMC6934184, “Selective DNA-PKcs inhibition extends the therapeutic index of localized radiotherapy and chemotherapy” (The Journal of Clinical Investigation, 2019).
# Biological target: T1, DAPK1 (Homo sapiens, UniProt P53355)
# T1 construct: purchased Thermo Fisher Scientific (Life Technologies) SelectScreen
# Experiment: SelectScreen Adapta
# Type: biochemical
# Method in brief: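 SelectScreen broad panel; activity (Z'LYTE, Adapta) plus binding formats. ATP: Km app for CSF1R Z'LYTE; 10 for CAMK1 Adapta. Readout = % per kinase.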
# T1 sequence (P53355 whole entry): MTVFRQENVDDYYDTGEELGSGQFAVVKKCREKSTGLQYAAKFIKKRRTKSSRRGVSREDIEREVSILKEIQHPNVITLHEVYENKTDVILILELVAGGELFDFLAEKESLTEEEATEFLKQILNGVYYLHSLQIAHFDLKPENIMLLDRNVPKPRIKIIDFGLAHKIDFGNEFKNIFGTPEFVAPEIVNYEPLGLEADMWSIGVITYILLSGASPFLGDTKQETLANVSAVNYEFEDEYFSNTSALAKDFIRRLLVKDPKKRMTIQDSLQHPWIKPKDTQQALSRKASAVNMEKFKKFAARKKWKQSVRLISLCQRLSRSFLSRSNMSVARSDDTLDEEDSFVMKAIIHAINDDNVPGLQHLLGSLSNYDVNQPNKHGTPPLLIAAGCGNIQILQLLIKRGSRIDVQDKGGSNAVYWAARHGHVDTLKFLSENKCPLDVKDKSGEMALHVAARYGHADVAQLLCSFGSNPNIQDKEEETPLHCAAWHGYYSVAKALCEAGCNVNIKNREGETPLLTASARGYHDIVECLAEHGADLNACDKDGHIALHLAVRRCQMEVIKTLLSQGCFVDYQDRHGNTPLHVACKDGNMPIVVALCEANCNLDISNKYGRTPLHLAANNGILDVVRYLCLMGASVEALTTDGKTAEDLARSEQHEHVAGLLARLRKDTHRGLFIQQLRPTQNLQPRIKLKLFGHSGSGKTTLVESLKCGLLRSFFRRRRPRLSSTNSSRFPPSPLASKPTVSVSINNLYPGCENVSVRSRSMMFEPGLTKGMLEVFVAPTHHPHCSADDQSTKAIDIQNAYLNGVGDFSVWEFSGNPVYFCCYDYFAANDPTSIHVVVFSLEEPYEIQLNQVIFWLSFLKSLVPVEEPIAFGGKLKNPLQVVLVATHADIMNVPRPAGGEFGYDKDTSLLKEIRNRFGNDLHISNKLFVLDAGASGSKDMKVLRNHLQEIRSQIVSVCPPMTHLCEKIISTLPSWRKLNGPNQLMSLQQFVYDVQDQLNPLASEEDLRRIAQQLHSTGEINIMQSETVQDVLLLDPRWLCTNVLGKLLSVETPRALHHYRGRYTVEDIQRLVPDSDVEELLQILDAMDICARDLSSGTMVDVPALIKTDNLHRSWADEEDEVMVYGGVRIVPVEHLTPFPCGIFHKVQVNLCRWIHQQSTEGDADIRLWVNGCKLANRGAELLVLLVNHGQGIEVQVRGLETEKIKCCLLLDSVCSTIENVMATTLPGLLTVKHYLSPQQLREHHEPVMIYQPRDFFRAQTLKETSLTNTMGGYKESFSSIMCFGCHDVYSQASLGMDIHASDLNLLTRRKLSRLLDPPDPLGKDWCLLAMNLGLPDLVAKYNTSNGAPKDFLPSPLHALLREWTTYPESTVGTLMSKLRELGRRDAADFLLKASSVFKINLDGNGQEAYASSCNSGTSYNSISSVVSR
smiles,measurement,value
CN(C(=O)CN1CCOCC1)c1ccc2sc3c(-c4cccc5c(=O)cc(N6CC7CCC(C6)O7)oc45)cccc3c2c1 [NU5455],inhibition at 1 µM,1.6%
